In series [1] the test system is Leukemia L1210. The experiment in a line: Activity against Leukemia L1210, oral, increase in life span of mice. Type of series: in vivo, female mice (BDF1 family). As to conditions: for ED (maximum ILS) / ED30: Mus musculus, L1210, oral once a day for 5 successive days; for ED (maximum ILS): daily dosage giving maximum increase of life span, read-out: O.D. (optimum dosage); for ED30: daily dosage increasing average survival days by 30%, read-out: ILS30; for Survivors after 60 days / Max. ILS % / Therapeutic ratio TR: oral; for Survivors after 60 days: 6-membered group; for Max. ILS %: 60-day observation, versus control; for Therapeutic ratio TR: O.D./ILS30. In outline: (§1)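 L1210 cells (1×10^5) into abdominal cavity of female BDF1 mice, 20–23 g, n=6/group. Dosing 24 h post-implant, ip or po, qd ×5. 60-day observation; ILS% = mean survival vs untreated control; T.R. = O.D./ILS 30.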

For another series, the system named is Ehrlich acites carcinoma. Description: Growth-inhibiting effect against Ehrlich acites carcinoma. Type of series: in vivo, male mice. To be noted: Mus musculus, Ehrlich, 120 h, 5 days; for response vs control in vivo at 25 mg/kg: 25 mg/kg/day ip; for response vs control in vivo at 100 mg/kg: 100 mg/kg/day ip. In outline: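 Activity graded from T/C% of total packed ascites cell volume on day 7 (treated vs untreated): - 100-66, + 65-41, ++ 40-11, +++ 10-0. Groups of 6 male mice bore 1×10^7 i.p.-implanted cells and received compound (1% Nikkol HCO-60) i.p. daily for 5 days from 24 hrs after implantation.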

The test system of series [2] is Leukemia L1210. Description: Activity against Leukemia L1210, intraperitoneal, increase in life span of mice. It counts as in vivo, female mice (BDF1 family). To be noted: for ED (maximum ILS) / ED30: Mus musculus, L1210, ip, ip once a day for 5 successive days; for ED (maximum ILS): daily dosage giving maximum increase of life span, read-out: O.D. (optimum dosage); for ED30: daily dosage increasing average survival days by 30%, read-out: ILS30; for Survivors after 60 days / Max. ILS % / Therapeutic ratio TR: ip; for Survivors after 60 days: 6-membered group; for Max. ILS %: 60-day observation, versus control; for Therapeutic ratio TR: O.D./ILS30. In outline: as §1

Series [3] in a line: Acute toxicity (LD50, Behrens-Karber method). Type of series: in vivo, ICR mice. To be noted: mouse, in vivo, ip, mortality during 30 days. How it is done: Test compounds, dissolved or suspended in 0.5% aqueous CMC, were each intraperitoneally administered to ICR mice in a dose of 0.1 ml per 10 g body weight. LD50 (mg/kg) value of each test compound was calculated from the mortality of mice during 30 days by the Behrens-Karber method.

Where two headings read alike, the source gives them in different places.

The term LD50 denotes the dose at which mortality reaches 50%. Read a low LD50 as greater toxicity.

On to `CCCCO[C@H]1O[C@H](CN(CC(C)OC)C(=O)N(CCCl)N=O)[C@@H](O)[C@H](O)[C@H]1O` (stereo partly drawn) [Compound 11, 3-(2-methoxy-n-propyl)-3-(n-butyl α-D-glucopyranose-6-yl)-1-(2-chloroethyl)-1-nitrosourea], for which, in the series with Leukemia L1210 [1], the ED (maximum ILS) was determined as 220 mg/kg, the ED30 is 9.57 mg/kg, the “Survivors after 60 days” value was 6/6 and the “Max. ILS %” value is reported as > 700%. Also, in the series on Leukemia L1210 [1], the “Therapeutic ratio TR” value was 23.0. In the series on Ehrlich acites carcinoma (read-out: Activity), the response vs control in vivo at 25 mg/kg lay in the range of 0 to 10% and the response vs control in vivo at 100 mg/kg lay in the range of 0 to 10%. For the same molecule, in the series with Ehrlich acites carcinoma (read-out: T/C %), the response vs control in vivo at 25 mg/kg is 0% and the response vs control in vivo at 100 mg/kg came out at 0%. In the series on Leukemia L1210 [2], the ED (maximum ILS) amounted to 170 mg/kg, the ED30 was found to be 2.9 mg/kg, the “Survivors after 60 days” value was 6/6 and the “Max. ILS %” value is > 700%. In addition, in the series on Leukemia L1210 [2], the “Therapeutic ratio TR” value turned out to be 58.6. The 50% lethal dose (LD50) at 720 h in series [3] amounted to 495 mg/kg.
`COCC(C)N(C[C@H]1O[C@H](OCC(C)C)[C@H](O)[C@@H](O)[C@@H]1O)C(=O)N(CCCl)N=O` (stereo partly drawn) [Compound 16, 3-(1-methyl-2-methoxyethyl)-3-(isobutyl α-D-glucopyranose-6-yl)-1-(2-chloroethyl)-1-nitrosourea]: in the series with Leukemia L1210 [1], the ED (maximum ILS) worked out at 240 mg/kg, the ED30 stood at 8.82 mg/kg, the “Survivors after 60 days” value was 6/6 and the “Max. ILS %” value is on record as > 700%. For the same molecule, in the series on Leukemia L1210 [1], the “Therapeutic ratio TR” value amounted to 27.2. Moreover, in the series with Ehrlich acites carcinoma (read-out: Activity), the response vs control in vivo at 25 mg/kg lay within 0 to 10% and the response vs control in vivo at 100 mg/kg is 0 to 10%. For the same molecule, in the series on Ehrlich acites carcinoma (read-out: T/C %), the response vs control in vivo at 25 mg/kg is 0% and the response vs control in vivo at 100 mg/kg amounted to 0%. Further, in the series with Leukemia L1210 [2], the ED (maximum ILS) came out at 190 mg/kg, the ED30 is 2.9 mg/kg, the “Survivors after 60 days” value was 6/6 and the “Max. ILS %” value is recorded as > 700%. Also, the “Therapeutic ratio TR” value in the series with Leukemia L1210 [2] is reported as 65.6. The same molecule showed an LD50 at 720 h in series [3] of 580 mg/kg.
For the molecule `COCC(C)N(C[C@H]1O[C@H](OC2CCCCC2)[C@H](O)[C@@H](O)[C@@H]1O)C(=O)N(CCCl)N=O` (stereo partly drawn) [Compound 42, 3-(1-methyl-2-methoxyethyl)-3-(cyclohexyl α-D-glucopyranose-6-yl)-1-(2-chloroethyl)-1-nitrosourea], in the series on Leukemia L1210 [1], the ED (maximum ILS) stood at 230 mg/kg, the ED30 was determined as 7.88 mg/kg, the “Survivors after 60 days” value is 6/6 and the “Max. ILS %” value is > 700%. Also, the “Therapeutic ratio TR” value with Leukemia L1210 [1] is 29.2. Further, in the series on Ehrlich acites carcinoma (read-out: Activity), the response vs control in vivo at 25 mg/kg is 0 to 10% and the response vs control in vivo at 100 mg/kg fell in the range of 0 to 10%. In addition, in the series with Ehrlich acites carcinoma (read-out: T/C %), the response vs control in vivo at 25 mg/kg amounted to 0% and the response vs control in vivo at 100 mg/kg came out at 0%. For the same molecule, in the series on Leukemia L1210 [2], the ED (maximum ILS) came to 180 mg/kg, the ED30 worked out at 2.7 mg/kg, the “Survivors after 60 days” value is listed as 6/6 and the “Max. ILS %” value is given as > 700%. In the series with Leukemia L1210 [2], the “Therapeutic ratio TR” value was found to be 66.6. For the same molecule, the LD50 at 720 h in series [3] worked out at 595 mg/kg.
As for `COCCN(C(=O)N(CCCl)N=O)C1C(OC(C)COC)OC(CO)C(O)C1O` [Compound 71, 3-(2-methoxyethyl)-3-(1-methyl-2-methoxyethyl α-D-glucopyranose-2-yl)-1-(2-chloroethyl)-1-nitrosourea], in the series with Leukemia L1210 [1], the ED (maximum ILS) amounted to 220 mg/kg, the ED30 was found to be 13.1 mg/kg, the “Survivors after 60 days” value is 4/6 and the “Max. ILS %” value is > 440%. For the same molecule, in the series on Leukemia L1210 [1], the “Therapeutic ratio TR” value is recorded as 16.8. In addition, in the series with Ehrlich acites carcinoma (read-out: Activity), the response vs control in vivo at 25 mg/kg lay in the range of 0 to 10% and the response vs control in vivo at 100 mg/kg was 0 to 10%. In the series with Ehrlich acites carcinoma (read-out: T/C %), the response vs control in vivo at 25 mg/kg stood at 0% and the response vs control in vivo at 100 mg/kg was 0%. Further, in the series with Leukemia L1210 [2], the ED (maximum ILS) came to 180 mg/kg, the ED30 came out at 4.17 mg/kg, the “Survivors after 60 days” value is on record as 6/6 and the “Max. ILS %” value is recorded as > 700%. In addition, the “Therapeutic ratio TR” value in the series with Leukemia L1210 [2] was found to be 43.2. In series [3], this molecule showed an LD50 at 720 h of 560 mg/kg.
For the molecule `O=NN(CCCl)C(=O)N(C1CCCCC1)C1C(OCC2CCCO2)OC(CO)C(O)C1O` [Compound 75, 3-cyclohexyl-3-(tetrahydrofurfuryl α-D-glucopyranose-2-yl)-1-(2-chloroethyl)-1-nitrosourea], in the series with Leukemia L1210 [1], the ED (maximum ILS) stood at 200 mg/kg, the ED30 is 11.6 mg/kg, the “Survivors after 60 days” value is listed as 4/6 and the “Max. ILS %” value was > 450%. For the same molecule, the “Therapeutic ratio TR” value in the series with Leukemia L1210 [1] was determined as 17.2. Moreover, in the series with Ehrlich acites carcinoma (read-out: Activity), the response vs control in vivo at 25 mg/kg is 0 to 10% and the response vs control in vivo at 100 mg/kg lay within 0 to 10%. In addition, in the series on Ehrlich acites carcinoma (read-out: T/C %), the response vs control in vivo at 25 mg/kg worked out at 0% and the response vs control in vivo at 100 mg/kg is 0%. Moreover, in the series with Leukemia L1210 [2], the ED (maximum ILS) amounted to 160 mg/kg, the ED30 turned out to be 3.67 mg/kg, the “Survivors after 60 days” value is recorded as 5/6 and the “Max. ILS %” value is > 625%. For the same molecule, the “Therapeutic ratio TR” value in the series with Leukemia L1210 [2] is listed as 43.6. This molecule yielded an LD50 at 720 h in series [3] of 505 mg/kg.
Turning to `COCCN(C[C@H]1O[C@H](OC2CCCCC2)[C@H](O)[C@@H](O)[C@H]1O)C(=O)N(CCCl)N=O` [Compound 101, 3-(2-methoxyethyl)-3-(cyclohexyl α-D-galactopyranose-6-yl)-1-(2-chloroethyl)-1-nitrosourea], in the series with Leukemia L1210 [1], the ED (maximum ILS) is 250 mg/kg, the ED30 worked out at 11.2 mg/kg, the “Survivors after 60 days” value is 4/6 and the “Max. ILS %” value is > 460%. Moreover, the “Therapeutic ratio TR” value in the series with Leukemia L1210 [1] stood at 22.3. Also, in the series with Ehrlich acites carcinoma (read-out: Activity), the response vs control in vivo at 25 mg/kg was 0 to 10% and the response vs control in vivo at 100 mg/kg was 0 to 10%. Also, in the series with Ehrlich acites carcinoma (read-out: T/C %), the response vs control in vivo at 25 mg/kg is 0% and the response vs control in vivo at 100 mg/kg stood at 0%. In the series with Leukemia L1210 [2], the ED (maximum ILS) was 200 mg/kg, the ED30 worked out at 3.66 mg/kg, the “Survivors after 60 days” value is 6/6 and the “Max. ILS %” value is listed as > 700%. Moreover, the “Therapeutic ratio TR” value in the series with Leukemia L1210 [2] came to 54.6. The LD50 at 720 h in series [3] worked out at 660 mg/kg.
Take `CCOCCO[C@H]1O[C@H](CN(CC(C)C)C(=O)N(CCCl)N=O)[C@H](O)[C@H](O)[C@H]1O` [Compound 114, 3-isobutyl-3-(2-ethoxyethyl α-D-galactopyranose-6-yl)-1-(2-chloroethyl)-1-nitrosourea]: in the series on Leukemia L1210 [1], the ED (maximum ILS) is 210 mg/kg, the ED30 was 9.05 mg/kg, the “Survivors after 60 days” value is 6/6 and the “Max. ILS %” value was > 700%. The “Therapeutic ratio TR” value in the series on Leukemia L1210 [1] is given as 23.2. Further, in the series with Ehrlich acites carcinoma (read-out: Activity), the response vs control in vivo at 25 mg/kg is 0 to 10% and the response vs control in vivo at 100 mg/kg fell in the range of 0 to 10%. Moreover, in the series on Ehrlich acites carcinoma (read-out: T/C %), the response vs control in vivo at 25 mg/kg turned out to be 0% and the response vs control in vivo at 100 mg/kg was found to be 0%. In the series on Leukemia L1210 [2], the ED (maximum ILS) is 180 mg/kg, the ED30 was 2.86 mg/kg, the “Survivors after 60 days” value is 6/6 and the “Max. ILS %” value is on record as > 700%. The “Therapeutic ratio TR” value with Leukemia L1210 [2] is recorded as 62.9. In addition, the LD50 at 720 h in series [3] was determined as 580 mg/kg.

Values taken from patent US4593090A, “Novel nitrosourea compounds, method for preparing same, and pharmaceutical composition containing same” (Gogo Kimura, priority 1981, dated 1986).
